These results are taken from PMC10002493, “Direct Oral FXa Inhibitors Binding to Human Serum Albumin: Spectroscopic, Calorimetric, and Computational Studies” (International Journal of Molecular Sciences, 2023).

For one data set, the system named is HSA: heme-Fe(III). Further details: method as in PMID 32279215. The following applies: pH 7.3, 20 °C, Phosphate 2.0 × 10^−2 M DMSO 10%, binding site IB, UV; cited from earlier work.
In another data set the target is T1, fatty-acid-free HSA.
T1 construct: purchased Sigma-Aldrich
Nature of the data set: Isothermal titration calorimetry (ITC) of anticoagulants with HSA. The arrangement: species or system human. The following applies: phosphate buffer 10 mM, pH 7.4, 298 K, one-site binding model. As for the experimental part: (§1) ITC analyses were performed in phosphate buffer, 10 mM, pH = 7.4. […] Lower ionization enthalpy reduces heat signals associated with proton-exchange reactions between the buffer and the ligand/host system during complex formation. […] A plot of the heat released per mole of HSA as a function of the molar ratio of the solution ([HSA]/[anticoagulant]) is shown at the foot of each figure. […] Control titrations were performed (drug over buffer) and subtracted from each analysis before the fitting.
(§2) ITC data were obtained using a MicroCal PEAQ-ITC instrument (Malvern Panalytical). […] Working solutions were prepared using aliquots of the stock solutions of anticoagulants diluted in phosphate buffer, 10 mM, pH = 7.4. […] The first injection was 0.40 μL, followed by 12 injections of 3.0 μL. Reference power was set to 5 μcal/s, 500 rpm stirring speed, initial delay of 60 s, and injection spacing of 150 s. Titration curves were drawn in duplicate and the thermodynamic parameters were fitted to the one-site binding model using Microcal PEAQ-ITC analysis software. Controls were measured by recording the heat effects of the titrant over plain buffer and were subtracted from thermograms before fitting analysis. All the measurements were performed in duplicate.

Data set [1] concerns T2, human serum albumin (HSA).
T2 construct: purchased Sigma-Aldrich
Description: Steady-state fluorescence quenching of HSA (Stern–Volmer analysis). In kind it is binding. The following applies: for Ksv (Stern–Volmer constant): 0.10 M tris-HCl pH 7.4, 0.10 M NaCl, 2 µM HSA, 0–20 µM drug, λex 295 nm; for Ksv of salt compared to the neutral compound: 298 K and 310 K. As for the experimental part:
The fluorescence intrinsic to proteins is attributed to aromatic amino acid residues, such as tryptophan (Trp), phenylalanine (Phe), and tyrosine (Tyr). The fluorescence of HSA in particular can be traced back to its tyrosine and tryptophan residues, therefore the experiments were performed with an excitation wavelength of 295 nm, because tryptophan absorbs light in this range [33]. HSA has a single tryptophan residue (Trp-214) close to the Sudlow site I (subdomain IIA), responsible for the main fluorescence emission of the protein [34, 35]. Binding to this site induces fluorescence quenching, which is a very helpful tool to evaluate different drugs’ interactions with HSA.
Sample measurements were recorded in 0.10 M tris-HCl buffer pH 7.4 with 0.10 M NaCl, 2 µM HSA, 0–20 µM FXa inhibitors respectively (λex = 295 nm).
The quenching process of HSA can be described as static or dynamic. Static quenching occurs when HSA forms complexes with anticoagulants in the ground state, whereas dynamic quenching occurs via diffusion-controlled encounters in the excited state. Consequently, temperature affects the quenching processes in a different manner. The Stern–Volmer constant has a temperature dependence: Ksv in a dynamic process increases with temperature due to the necessity of successful diffusion and collision of the FXa inhibitors with the tryptophan residues of HSA. In a static quenching process, Ksv decreases with rising temperature, due to the diminished stability of the complex in the ground state. The quenching process of HSA can be analyzed by the Stern–Volmer equation, which provides helpful information regarding the binding process. Table 1 and Figure 4 summarize the Ksv of the HSA-FXa inhibitor complexes at 298 K and 310 K respectively. The Ksv of betrixaban and edoxaban were compared with their respective salts, betrixaban maleate (BEM) and edoxaban tosylate hydrate (EDT).
Fluorescence emission spectra were collected on a Perkin Elmer LS55 fluorimeter, using 5 nm bandwidths for excitation and emission. Samples were excited at 295 nm and 298 K or 310 K, respectively. Subsequently, HSA fluorescence was measured at 350 nm decreases, in the presence of different anticoagulants, corrected by the inner-filter effect using Equation (1) where Icorr and Iobs correspond to fluorescence corrected and obtained intensities, and Aex and Aem correspond to the absorbance at the excitation and emission wavelengths. The quenching data were evaluated using the Stern–Volmer Equation (2), where I0 and I are the fluorescence intensities of the HSA in the absence or presence of anticoagulants (Q, quenchers), and Ksv is the Stern–Volmer constant:(1) Icorr=Iobs×10^Aex+Aem/2 (2) I0/I=1+KsvQ

The subject of a further data set is HSA fatty acid-free. The arrangement: method as in PMID 29680174. The following applies: Tris–HCl (0.10 M NaCl) DMSO 2%, FS, cited from earlier work.
A short description of data set [2]: Aqueous solubility observed in preparing ITC solutions. The following applies: also with solvent mixtures that included ethanol and DMSO, prevented ITC data. The format is physicochemical. As for the experimental part: as §1, §2
The conditions of data set [3]: reversible protein–drug complexes; cited from earlier work.
Details of data set [4]: method as in PMID 32279215. The following applies: rivaroxaban-treated patients; cited from earlier work.
The test system of the next data set is BSA. The following applies: binding site IIA, FS, cited from earlier work.

Counter-ions that a name gives are not always drawn. Like-named read-outs stand apart in the source and are kept apart here.

Regarding `COc1ccc(-n2nc(C(N)=O)c3c2C(=O)N(c2ccc(N4CCCCC4=O)cc2)CC3)cc1` [AP, apixaban], the K was 2.78e+06 M⁻¹ in the data set with HSA: heme-Fe(III); 3410 M⁻¹ in the data set with HSA fatty acid-free (pH 7.4, 28 °C, binding site IIA); 2460 M⁻¹ in the data set with HSA fatty acid-free (pH 7.4, 37 °C, binding site IB); 1670 M⁻¹ with HSA fatty acid-free (pH 7.4, 45 °C, binding site IB). The compound also had a KITC binding constant on fatty-acid-free HSA of 5560 M⁻¹. Also, the results for the “Ksv (Stern–Volmer constant)” value in data set [1] (298 K) and in data set [1] (310 K) were 3.36 ± 0.03 ×10^4 M^−1 and 2.79 ± 0.02 ×10^4 M^−1, respectively.

For the compound `COc1ccc(NC(=O)c2ccc(C(=N)N(C)C)cc2)c(C(=O)Nc2ccc(Cl)cn2)c1` [BE, betrixaban], the K in the data set with HSA: heme-Fe(III) was 1.61e+06 M⁻¹. The entries for the “Ksv (Stern–Volmer constant)” value in data set [1] (298 K) and in data set [1] (310 K) were 1.86 ± 0.03 ×10^4 M^−1 and 1.44 ± 0.04 ×10^4 M^−1, respectively. Also, the aqueous solubility result in data set [2] was “poor aqueous solubility”.

The compound `COc1ccc(NC(=O)c2ccc(C(=N)N(C)C)cc2)c(C(=O)Nc2ccc(Cl)cn2)c1` [BEM, betrixaban maleate] displayed a KITC binding constant on fatty-acid-free HSA of 1600 M⁻¹. The “Ksv of salt compared to the neutral compound” value in data set [1] is “no significant differences”. Besides, the “Ksv (Stern–Volmer constant)” value in data set [1] (298 K) is reported as 1.59±0.05 ×10^4 M^−1; in data set [1] (310 K), 1.36±0.03 ×10^4 M^−1.

`CN1CCc2nc(C(=O)N[C@@H]3C[C@@H](C(=O)N(C)C)CC[C@@H]3NC(=O)C(=O)Nc3ccc(Cl)cn3)sc2C1` [ED, edoxaban]: the K with HSA: heme-Fe(III) is 769000 M⁻¹. Also, in data set [3], the “binding to plasma proteins” value is recorded as 55%. In addition, the “Ksv (Stern–Volmer constant)” value was 1.60 ± 0.04 ×10^4 M^−1 in data set [1] (298 K) and 1.28 ± 0.05 ×10^4 M^−1 in data set [1] (310 K). Further, the aqueous solubility entry in data set [2] is recorded as “poor aqueous solubility”; in data set [2] (listed as edoxaban) it was “low water solubility”.

For the compound `CN1CCc2nc(C(=O)N[C@@H]3C[C@@H](C(=O)N(C)C)CC[C@@H]3NC(=O)C(=O)Nc3ccc(Cl)cn3)sc2C1.Cc1ccc(S(=O)(=O)O)cc1.O` [EDT, Edoxaban tosylate hydrate], in data set [1], the “Ksv of salt compared to the neutral compound” value is “no significant differences”. Also, the “Ksv (Stern–Volmer constant)” value in data set [1] (298 K) is 1.79±0.03 ×10^4 M^−1; in data set [1] (310 K) it was 1.27±0.02 ×10^4 M^−1. In data set [2], the aqueous solubility entry was “poor aqueous solubility”.

`O=C(NC[C@H]1CN(c2ccc(N3CCOCC3=O)cc2)C(=O)O1)c1ccc(Cl)s1` [RV, rivaroxaban]: the K is 455000 M⁻¹ in the data set on HSA: heme-Fe(III); 132000 M⁻¹ with BSA (pH 7.4, 25 °C, Phosphate DMSO 0.3%); 18200 M⁻¹ in the data set with BSA (pH 7.4, 30 °C, Phosphate DMSO 0.3%); 4370 M⁻¹ in the data set with BSA (pH 7.4, 35 °C, Phosphate buffer DMSO 0.3%). Also, the “binding to plasma proteins” value in data set [3] is on record as 95%. Further, the “Ksv (Stern–Volmer constant)” value is on record as 1.56 ± 0.03 ×10^4 M^−1 in data set [1] (298 K) and 0.98 ± 0.04 ×10^4 M^−1 in data set [1] (310 K). The “adjusted risk of bleeding per 1.0 g/dL incremental decrease in albumin” value in data set [4] was 4.4 fold. In addition, the aqueous solubility entry in data set [2] is given as “poor aqueous solubility”; in data set [2] (listed as rivaroxaban), “low water solubility”.
